Results from patent publication US4007167A, “Antibiotic BM123 and production thereof” (American Cyanamid Company, priority 1975, dated 1977).
Values after ≈ are worked out from the molar mass of the structure shown.

What was measured:
[1] = test system: Mycobacterium smegmatis ATCC 607; assay: in vitro MIC, standard agar dilution procedure; type: cell-based; details: for MIC: Mycolicibacterium smegmatis, ATCC607, read-out: Minimal Inhibitory Concentration
[2] = test system: Staphylococcus aureus Rose ATCC 14154; assay: in vitro MIC, standard agar dilution procedure; type: cell-based; details: for MIC: ATCC14154, read-out: Minimal Inhibitory Concentration
[3] = test system: Staphylococcus aureus Smith ATCC 13709; assay: in vitro MIC, standard agar dilution procedure; type: cell-based; details: for MIC: ATCC13709, read-out: Minimal Inhibitory Concentration
[4] = test system: Staphylococcus aureus 4050B122-3; assay: in vitro MIC, standard agar dilution procedure; type: cell-based; details: for MIC: 4050B1223, read-out: Minimal Inhibitory Concentration
[5] = test system: Bacillus cereus ATCC 9634; assay: in vitro MIC, standard agar dilution procedure; type: cell-based; details: for MIC: ATCC9634, read-out: Minimal Inhibitory Concentration
[6] = test system: Bacillus globigii; assay: in vitro MIC, standard agar dilution procedure; type: cell-based
[7] = test system: Bacillus subtilis No. 17 Stansly R-78; assay: in vitro MIC, standard agar dilution procedure; type: cell-based; details: for MIC: read-out: Minimal Inhibitory Concentration
[8] = test system: Bacillus subtilis No. 18 Stansly R-76; assay: in vitro MIC, standard agar dilution procedure; type: cell-based; details: for MIC: read-out: Minimal Inhibitory Concentration
[9] = test system: Corynebacterium xerosis NRRL B-1397; assay: in vitro MIC, standard agar dilution procedure; type: cell-based; details: for MIC: NRRLB1397, read-out: Minimal Inhibitory Concentration
[10] = test system: Streptococcus faecalis GK; assay: in vitro MIC, standard agar dilution procedure; type: cell-based; details: for MIC: Enterococcus faecalis, read-out: Minimal Inhibitory Concentration
[11] = test system: Sarcina lutea ATCC 9341; assay: in vitro MIC, standard agar dilution procedure; type: cell-based; details: for MIC: Micrococcus luteus, ATCC9341, read-out: Minimal Inhibitory Concentration
[12] = test system: Enterobacter aerogenes 75; assay: in vitro MIC, standard agar dilution procedure; type: cell-based; details: for MIC: Klebsiella aerogenes, read-out: Minimal Inhibitory Concentration
[13] = test system: Escherichia coli U-311; assay: in vitro MIC, standard agar dilution procedure; type: cell-based; details: for MIC: U311, read-out: Minimal Inhibitory Concentration
[14] = test system: Escherichia coli No. 29; assay: in vitro MIC, standard agar dilution procedure; type: cell-based; details: for MIC: read-out: Minimal Inhibitory Concentration
[15] = test system: Klebsiella pneumoniae AD; assay: in vitro MIC, standard agar dilution procedure; type: cell-based; details: for MIC: read-out: Minimal Inhibitory Concentration
[16] = test system: Proteus mirabilis ATCC 4671; assay: in vitro MIC, standard agar dilution procedure; type: cell-based; details: for MIC: ATCC4671, read-out: Minimal Inhibitory Concentration
[17] = test system: Proteus morganii ATCC 8019; assay: in vitro MIC, standard agar dilution procedure; type: cell-based; details: for MIC: Morganella morganii, ATCC8019, read-out: Minimal Inhibitory Concentration
[18] = test system: Proteus vulgaris ATCC 9484; assay: in vitro MIC, standard agar dilution procedure; type: cell-based; details: for MIC: ATCC9484, read-out: Minimal Inhibitory Concentration
[19] = test system: Pseudomonas aeruginosa ATCC 10145; assay: in vitro MIC, standard agar dilution procedure; type: cell-based; details: for MIC: ATCC10145, read-out: Minimal Inhibitory Concentration
[20] = test system: Pseudomonas aeruginosa 1A7; assay: in vitro MIC, standard agar dilution procedure; type: cell-based; details: for MIC: read-out: Minimal Inhibitory Concentration
[21] = test system: Salmonella gallinarum 605; assay: in vitro MIC, standard agar dilution procedure; type: cell-based; details: for MIC: Salmonella enterica, read-out: Minimal Inhibitory Concentration
[22] = test system: Salmonella typhosa ATCC 6539; assay: in vitro MIC, standard agar dilution procedure; type: cell-based; details: for Minimal Inhibitory Concentration: Salmonella typhosa ATCC 6539, agar dilution; for MIC: Salmonella enterica, read-out: Minimal Inhibitory Concentration
[23] = test system: Shigella shiga; assay: microbe, parasite or virus in culture; type: cell-based; details: for Minimal Inhibitory Concentration: Shigella shiga, agar dilution; for MIC: Shigella, read-out: Minimal Inhibitory Concentration
[24] = test system: Escherichia coli US311; assay: control of systemic lethal infection in mice, single subcutaneous dose; type: in vivo, mice (Carworth Farms CF-1)
Procedure: (§1) These new substances show high in vivo antibacterial activity in mice against Proteus mirabilis ATCC 4671, Klebsiella pneumoniae AD, and Escherichia coli US311 when administered by a single subcutaneous dose to groups of Carworth Farms CF-1 mice, weight about 20 gm., infected intraperitoneally with a lethal dose of these bacteria in 10^-^1.6 , 10^-^4 and 10^-^3 trypticase soy broth TSP dilutions, respectively, of a 5 hour TSP blood culture.
(§2) Table VII, below, illustrates the in vivo antibacterial activity of BM123α, BM123β, and BM123γ against these three bacteria.

[25] = test system: Klebsiella pneumoniae AD; assay: as above; type: in vivo, mice (Carworth Farms CF-1)
Procedure: as §1, §2

[26] = test system: Proteus mirabilis ATCC 4671; assay: as above; type: in vivo, mice (Carworth Farms CF-1)
Procedure: as §1, §2

[27] = test system: a variety of organisms; assay: in vivo antibacterial activity (general statement); details: in words
[28] = single subcutaneous dose 32 mg./kg.
[29] = single subcutaneous dose 128 mg./kg.
[30] = single subcutaneous dose 512 mg./kg.

## CC1OC(Oc2ccc(/C=C/C(=O)NCCCNCCCCN)cc2)C(NC(=N)N)C(O)C1NC(=O)NC1OCC(OC2OCC(O)C(N)C2NC(N)=O)C(O)C1NC(N)=O (stereo not drawn) [BM123β1]
[1]
  Minimal Inhibitory Concentration: 2.5 µg/mL
[2]
  Minimal Inhibitory Concentration: 1 µg/mL
[3]
  Minimal Inhibitory Concentration: 0.5 µg/mL
[4]
  Minimal Inhibitory Concentration: 2.5 µg/mL
[5]
  Minimal Inhibitory Concentration: 2.5 µg/mL
[6]
  Minimal Inhibitory Concentration: 0.25 µg/mL
[7]
  Minimal Inhibitory Concentration: 0.25 µg/mL
[8]
  Minimal Inhibitory Concentration: 2.5 µg/mL
[9]
  Minimal Inhibitory Concentration: 2.5 µg/mL
[10]
  Minimal Inhibitory Concentration: > 100 µg/mL
[11]
  Minimal Inhibitory Concentration: 2.5 µg/mL
[12]
  Minimal Inhibitory Concentration: 0.5 µg/mL
[13]
  Minimal Inhibitory Concentration: 0.25 µg/mL
[14]
  Minimal Inhibitory Concentration: 0.25 µg/mL
[15]
  Minimal Inhibitory Concentration: 0.25 µg/mL
[16]
  Minimal Inhibitory Concentration: 0.5 µg/mL
[17]
  Minimal Inhibitory Concentration: 0.5 µg/mL
[18]
  Minimal Inhibitory Concentration: 0.25 µg/mL
[19]
  Minimal Inhibitory Concentration: 25 µg/mL
[20]
  Minimal Inhibitory Concentration: 100 µg/mL
[21]
  Minimal Inhibitory Concentration: 0.5 µg/mL
[22]
  Minimal Inhibitory Concentration: 0.25 µg/mL
[23]
  Minimal Inhibitory Concentration: 2.5 µg/mL

## CC1OC(Oc2ccc(/C=C/C(=O)NCCCNCCCCN)cc2)C(NC(=N)N)C(O)C1NC(=O)NC1OCC(OC2OCC3OC(=O)NC3C2NC(N)=O)C(O)C1NC(N)=O (single isomer, unassigned) [BM123γ2]
[1]
  MIC: 0.25 µg/mL (≈ 0.28 µM)
[2]
  MIC: 0.25 µg/mL (≈ 0.28 µM)
[3]
  MIC: 0.25 µg/mL (≈ 0.28 µM)
[4]
  MIC: 0.5 µg/mL (≈ 0.559 µM)
[5]
  MIC: 0.5 µg/mL (≈ 0.559 µM)
[7]
  MIC: 0.1 µg/mL (≈ 0.112 µM)
[8]
  MIC: 0.25 µg/mL (≈ 0.28 µM)
[9]
  MIC: 0.25 µg/mL (≈ 0.28 µM)
[10]
  MIC: 2.5 µg/mL (≈ 2.8 µM)
[11]
  MIC: 1 µg/mL (≈ 1.12 µM)
[12]
  MIC: 0.1 µg/mL (≈ 0.112 µM)
[13]
  MIC: 0.1 µg/mL (≈ 0.112 µM)
[14]
  MIC: 0.1 µg/mL (≈ 0.112 µM)
[15]
  MIC: 0.05 µg/mL (≈ 0.0559 µM)
[16]
  MIC: 0.25 µg/mL (≈ 0.28 µM)
[17]
  MIC: 0.1 µg/mL (≈ 0.112 µM)
[18]
  MIC: 0.1 µg/mL (≈ 0.112 µM)
[19]
  MIC: 5 µg/mL (≈ 5.59 µM)
[20]
  MIC: 10 µg/mL (≈ 11.2 µM)
[21]
  MIC: 0.1 µg/mL (≈ 0.112 µM)
[22]
  MIC: 0.05 µg/mL (≈ 0.0559 µM)
[23]
  MIC: 0.25 µg/mL (≈ 0.28 µM)

## Gentamicin sulfate [reference compound]
[1]
  Minimal Inhibitory Concentration: 0.1 µg/mL
[2]
  Minimal Inhibitory Concentration: 0.1 µg/mL
[3]
  Minimal Inhibitory Concentration: 0.05 µg/mL
[4]
  Minimal Inhibitory Concentration: 0.25 µg/mL
[5]
  Minimal Inhibitory Concentration: 0.25 µg/mL
[6]
  Minimal Inhibitory Concentration: 0.025 µg/mL
[7]
  Minimal Inhibitory Concentration: 0.025 µg/mL
[8]
  Minimal Inhibitory Concentration: 0.1 µg/mL
[9]
  Minimal Inhibitory Concentration: 0.025 µg/mL
[10]
  Minimal Inhibitory Concentration: 2.5 µg/mL
[11]
  Minimal Inhibitory Concentration: 0.25 µg/mL
[12]
  Minimal Inhibitory Concentration: 0.1 µg/mL
[13]
  Minimal Inhibitory Concentration: 0.05 µg/mL
[14]
  Minimal Inhibitory Concentration: 0.05 µg/mL
[15]
  Minimal Inhibitory Concentration: 0.05 µg/mL
[16]
  Minimal Inhibitory Concentration: 0.25 µg/mL
[17]
  Minimal Inhibitory Concentration: 0.1 µg/mL
[18]
  Minimal Inhibitory Concentration: 0.1 µg/mL
[19]
  Minimal Inhibitory Concentration: 2.5 µg/mL
[20]
  Minimal Inhibitory Concentration: 5 µg/mL
[21]
  Minimal Inhibitory Concentration: 0.05 µg/mL
[22]
  Minimal Inhibitory Concentration: 0.1 µg/mL
[23]
  Minimal Inhibitory Concentration: 0.25 µg/mL

## N=C(N)NCCCC(N)C(=O)NC1C(OC2C(CO)OC(OC3C(O)C(NC(=O)C4CCC(=N)N4)C(O)C(O)C3OC(N)=O)C(O)C2O)OC(CO)C(O)C1O (stereo not drawn) [BM123α]
[1]
  Minimal Inhibitory Concentration: 5 µg/mL
[2]
  Minimal Inhibitory Concentration: 100 µg/mL
[3]
  Minimal Inhibitory Concentration: 20 µg/mL
[4]
  Minimal Inhibitory Concentration: 100 µg/mL
[5]
  Minimal Inhibitory Concentration: 100 µg/mL
[6]
  Minimal Inhibitory Concentration: 10 µg/mL
[7]
  Minimal Inhibitory Concentration: 10 µg/mL
[8]
  Minimal Inhibitory Concentration: 20 µg/mL
[9]
  Minimal Inhibitory Concentration: 10 µg/mL
[10]
  Minimal Inhibitory Concentration: > 200 µg/mL
[11]
  Minimal Inhibitory Concentration: 50 µg/mL
[12]
  Minimal Inhibitory Concentration: 10 µg/mL
[13]
  Minimal Inhibitory Concentration: 5 µg/mL
[14]
  Minimal Inhibitory Concentration: 5 µg/mL
[15]
  Minimal Inhibitory Concentration: 5 µg/mL
[16]
  Minimal Inhibitory Concentration: 50 µg/mL
[17]
  Minimal Inhibitory Concentration: 5 µg/mL
[18]
  Minimal Inhibitory Concentration: 5 µg/mL
[19]
  Minimal Inhibitory Concentration: 200 µg/mL
[20]
  Minimal Inhibitory Concentration: > 200 µg/mL
[21]
  Minimal Inhibitory Concentration: 5 µg/mL
[22]
  Minimal Inhibitory Concentration: 5 µg/mL
[23]
  Minimal Inhibitory Concentration: 50 µg/mL
[24]; [28]
  Alive/Total Mice Tested, 7 Days After Infection: 1/5
[24]; [29]
  Alive/Total Mice Tested, 7 Days After Infection: 5/5
[24]; [30]
  Alive/Total Mice Tested, 7 Days After Infection: 5/5
[25]; [28]
  Alive/Total Mice Tested, 7 Days After Infection: 0/5
[25]; [29]
  Alive/Total Mice Tested, 7 Days After Infection: 0/5
[25]; [30]
  Alive/Total Mice Tested, 7 Days After Infection: 4/5
[26]; single subcutaneous dose 8 mg./kg.
  Alive/Total Mice Tested, 7 Days After Infection: 0/5
[26]; [28]
  Alive/Total Mice Tested, 7 Days After Infection: 2/5
[26]; [29]
  Alive/Total Mice Tested, 7 Days After Infection: 3/5
[26]; [30]
  Alive/Total Mice Tested, 7 Days After Infection: 5/5
[27]
  in vivo activity against a variety of organisms: active in vivo

## CC1OC(Oc2ccc(/C=C/C(=O)NCCCNCCCCN)cc2)C(NC(=N)N)C(O)C1NC(=O)NC1OCC(OC2OCC(O)C3NC(=O)N(C(N)=O)C23)C(O)C1NC(N)=O (single isomer, unassigned) [BM123γ1]
[1]
  MIC: 0.1 µg/mL (≈ 0.112 µM)
[2]
  MIC: 0.25 µg/mL (≈ 0.28 µM)
[3]
  MIC: 0.1 µg/mL (≈ 0.112 µM)
[4]
  MIC: 0.25 µg/mL (≈ 0.28 µM)
[5]
  MIC: 0.25 µg/mL (≈ 0.28 µM)
[7]
  MIC: 0.1 µg/mL (≈ 0.112 µM)
[8]
  MIC: 0.25 µg/mL (≈ 0.28 µM)
[9]
  MIC: 0.25 µg/mL (≈ 0.28 µM)
[10]
  MIC: 2.5 µg/mL (≈ 2.8 µM)
[11]
  MIC: 0.5 µg/mL (≈ 0.559 µM)
[12]
  MIC: 0.1 µg/mL (≈ 0.112 µM)
[13]
  MIC: 0.1 µg/mL (≈ 0.112 µM)
[14]
  MIC: 0.05 µg/mL (≈ 0.0559 µM)
[15]
  MIC: 0.05 µg/mL (≈ 0.0559 µM)
[16]
  MIC: 0.25 µg/mL (≈ 0.28 µM)
[17]
  MIC: 0.1 µg/mL (≈ 0.112 µM)
[18]
  MIC: 0.1 µg/mL (≈ 0.112 µM)
[19]
  MIC: 2.5 µg/mL (≈ 2.8 µM)
[20]
  MIC: 5 µg/mL (≈ 5.59 µM)
[21]
  MIC: 0.1 µg/mL (≈ 0.112 µM)
[22]
  MIC: 0.05 µg/mL (≈ 0.0559 µM)
[23]
  MIC: 0.25 µg/mL (≈ 0.28 µM)
